The source of these data is the METLIN SMRT retention time set (Domingo-Almenara et al. 2019).

This data set in a line: gradient 5% acetonitrile 3 min, to 50% in 2 min, to 85% in 15 min, held 3 min, 100 µL/min. As to conditions: column: Zorbax Extend-C18 2.1 x 50 mm; eluents: water / acetonitrile, 0.1% formic acid. In a few lines:
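Pure standards were run in mixtures of ~100 molecules by HPLC coupled to a quadrupole time-of-flight mass spectrometer. The column was a Zorbax Extend-C18 (2.1 × 50 mm, 1.8 μm) at 100 μL/min, with water and acetonitrile each containing 0.1% formic acid, in positive and negative ionization mode. Dead and dwell volumes were 40 μL and 900 μL. Retention time was taken from computationally picked adduct peaks, each manually inspected, with data collected over 3 months.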
Consider `COc1ccc(C(=O)Nc2nc(-c3ccc([N+](=O)[O-])cc3)cs2)cc1OC`, for which the RP-LC retention time worked out at 1010 s.
For `Cc1nn(-c2cc(N3CCCCC3)ncn2)c(C)c1CCC(=O)NC(C)CCc1ccco1` (centres undefined) the value was 941 s.
Take `CCCN(C)C(=O)C1CCCN(c2cnc3nccnc3c2)C1` (centres undefined): the RP-LC retention time came to 655 s.
Compound `Cc1nn(CC(=O)NCCCN2CCCC2=O)c(=O)c2nn(-c3ccccc3)c(C)c12` displayed an RP-LC retention time of 642 s.
The compound `Cc1cc(C)cc(NC(=O)N2CCCC(Cn3c(C)nc4cccnc43)C2)c1` (centres undefined) registered an RP-LC retention time of 671 s.
Consider `CCC1=NS(=O)(=O)c2cccnc2N1c1ccc(F)c(C)c1`, for which the RP-LC retention time is 897 s.
`CCCCOc1ccc(C(=O)N2CCNC(=O)C2CC(=O)OC2CCCCC2)cc1` (centres undefined) returned an RP-LC retention time of 1000 s.
In the case of `CCOC(=O)c1nc(Nc2ccc(OC(C)C)cc2)c2ccccc2n1`, the RP-LC retention time came out at 888 s.
For the compound `CCCc1noc(-c2cccnc2N2CCCN(Cc3cccc(F)c3)CC2)n1`, the RP-LC retention time stood at 722 s.
Turning to `COc1ncccc1CNS(=O)(=O)c1ccccc1`, the RP-LC retention time was 757 s.
In turn, `Cc1ccc(Cl)cc1N1CCN(C(=O)c2[nH]c(C)c(S(=O)(=O)N3CCCC3)c2C)CC1` displayed an RP-LC retention time of 1060 s.
In the case of `O=C(c1ccc(Cl)c(Cl)c1)N1CCN(c2nc(-c3ccccc3)cs2)CC1`, the RP-LC retention time was 1210 s.
`O=C(NCCCN1CCCC1=O)C1CCN(c2ncnc3c2oc2ccccc23)CC1` gave an RP-LC retention time of 602 s.
The compound `CCC(C)NC(=O)c1ccc(-c2nnc3ccc(NC(=O)C4CC4)cn23)cc1` (centres undefined) showed an RP-LC retention time of 718 s.
Regarding `CCN(CC)S(=O)(=O)c1ccc2c(c1)N(CC(=O)N1CCN(C)CC1)C(=O)C1CCCCN21` (centres undefined), the RP-LC retention time was found to be 658 s.
The compound `CN1C(=O)[C@H]2CN(Cc3ccccc3C#N)C[C@H]2C1=O` gave an RP-LC retention time of 650 s.
`Fc1cc(F)cc(Cc2nc3nccc(-c4ccccc4)n3n2)c1` had an RP-LC retention time of 926 s.
`OCCNc1nc(N2CCOCC2)nc2c1cnn2-c1ccc(Cl)cc1` returned an RP-LC retention time of 824 s.
As to `Clc1cccc(-c2nnc(-c3nc(NCCC4=CCCCC4)c4ccccc4n3)o2)c1`, the RP-LC retention time worked out at 1370 s.
Consider `Cc1nn(-c2nc(-c3ccc(Cl)cc3)cs2)c(C)c1CC(=O)NCc1ccccc1`, for which the RP-LC retention time was 1170 s.
`CC(C)n1c(CN2CCN(C)CC2)nc2cc(NC(=O)c3cccs3)ccc21` displayed an RP-LC retention time of 565 s.
On to `CCN(CC)c1ccc(C(=O)O)cc1NC(=O)c1cccs1`, for which the RP-LC retention time was found to be 835 s.
Regarding `COc1cccc2cc(C(=O)NCCC(O)C(C)(C)C)oc12` (centres undefined), the RP-LC retention time turned out to be 770 s.
Compound `Fc1ccc(Cl)cc1CN1CC(COc2cccnc2)C2(CCOCC2)C1` (centres undefined) returned an RP-LC retention time of 566 s.
To `O=C(c1ccc([N+](=O)[O-])cc1)N(Cc1ccccc1)Cc1ccco1` belongs 935 s.
Regarding `CCOCCCNC(=O)N1CC(c2nc(C)no2)C2(CCOCC2)C1` (centres undefined), the RP-LC retention time is 616 s.
In turn, `COc1ccc(-c2nc3nc(C)cc(C)n3c2Nc2ccc(Cl)cc2)cc1` gave an RP-LC retention time of 730 s.
`Cc1cccc(S(=O)(=O)N2CCc3nc(-c4ccc(F)cc4)ncc3C2)c1` showed an RP-LC retention time of 1140 s.
The compound `COCCc1noc(-c2ccc(=O)n(CC(=O)Nc3ccccc3F)c2)n1` returned an RP-LC retention time of 695 s.
To `COc1ccccc1-c1noc(C2CCCN2C(=O)c2cccs2)n1` (centres undefined) belongs 849 s; to `O=S(=O)(CCCOc1ccc2c(c1)OCO2)NCCC1=CCCCC1`, 1000 s; to `CC(C)Oc1cncc(C(N)=O)c1`, 583 s.
Take `Cc1ccc(-c2csc3c(=O)n(CC(=O)OC(C)(C)C)cnc23)cc1`: the RP-LC retention time came to 1090 s.
With `CCC(=O)N1CCc2cc(S(=O)(=O)CCC(=O)NC3CCCc4ccccc43)ccc21` (centres undefined), the RP-LC retention time was determined as 860 s.
